Measured values taken from ChEMBL document CHEMBL3120117, “Synthesis and antitumor activity evaluation of chrysin derivatives” (Eur J Med Chem, 2014).

Key:
H22 [1] = test: Cytotoxicity against mouse H22 cells assessed as growth inhibition by MTT assay; assay type: functional, cell-based
H22 [2] = test: Cell cycle arrest in mouse H22 cells assessed as accumulation at S phase at 1 mmol/l after 24 hrs by propidium iodide staining based flow cytometry (reference value: 70.21 +/-0.38%); assay type: functional
H22 [3] = test: Cell cycle arrest in mouse H22 cells assessed as accumulation at G1 phase at 1 mmol/l after 24 hrs by propidium iodide staining based flow cytometry (reference value: 14.38 +/-0.54%); assay type: functional
H22 [4] = test: Cell cycle arrest in mouse H22 cells assessed as accumulation at G2/M phase at 1 mmol/l after 24 hrs by propidium iodide staining based flow cytometry (reference value: 15.42 +/-0.33%); assay type: functional
H22 [5] = test: Cytotoxicity against mouse H22 cells assessed as growth inhibition by MTT assay relative to chrysin; assay type: functional

Row | Structure (SMILES) | IC50 (H22 [1]) | Activity (H22 [2]) | Activity (H22 [3]) | Activity (H22 [4]) | growth inhibition (GI) (H22 [5])
1 | CC(=O)Oc1cc(O)c2c(=O)cc(-c3ccccc3)oc2c1 | 4.29 mM | – | – | – | –
2 | O=C(Oc1cc(O)c2c(=O)cc(-c3ccccc3)oc2c1)c1ccccc1 | 1.71 mM | – | – | – | –
3 | O=C(O)COc1cc(OCC(=O)O)c2c(=O)cc(-c3ccccc3)oc2c1 [FLAVODIC ACID] | 3.12 mM | – | – | – | –
4 | CCOC(=O)COc1cc(OCC(=O)OCC)c2c(=O)cc(-c3ccccc3)oc2c1 | 4.03 mM | – | – | – | –
5 | O=c1cc(-c2ccccc2)oc2cc(O)cc(O)c12 [CHRYSIN] | 1.67 mM | 69.91% | 12.97% | 17.13% | –
6 | O=C(O)COc1cc(O)cc2oc(-c3ccccc3)cc(=O)c12 | 2.47 mM | – | – | – | –
7 | CC(=O)Oc1cc(OC(C)=O)c2c(=O)cc(-c3ccccc3)oc2c1 [CHRYSIN DIACETATE] | 0.141 mM | 57.44% | 6.22% | 36.34% | 91.56%
8 | O=C(Oc1cc(OC(=O)c2ccccc2)c2c(=O)cc(-c3ccccc3)oc2c1)c1ccccc1 | 3.66 mM | – | – | – | –
9 | CCOC(=O)COc1cc(OC(=O)c2ccccc2)cc2oc(-c3ccccc3)cc(=O)c12 | 3.22 mM | – | – | – | –
